Measurements: patent publication US20240101551A1, “CRYSTAL FORM AND SALT FORM OF BROMINE DOMAIN PROTEIN INHIBITOR AND PREPARATION METHOD THEREFOR” (CHIA TAI TIANQING PHARMACEUTICAL GROUP CO., LTD., priority 2020, published 2024)

What was measured:
Type in all cases: physicochemical
[1] = Study on stability under influencing factors (high temperature, high humidity, light) of the crystal forms
Protocol: In order to evaluate the solid stability of the crystal forms of the present application, the stability of each of the crystal form I, the crystal form A, the crystal form D, the crystal form E and the crystal form F under influencing factors (high temperature, high humidity and light) was investigated. Each of the crystal forms was stored under the high temperature condition (60±2° C., open (weighing bottle)), and the high humidity condition (room temperature, 92.5%±5% RH, open (weighing bottle) and packaged) for 5 days, 10 days and 30 days, and under the ICH light condition (5500 Lux, 0.9 w/m^2, closed (weighing bottle) and packaged) for 5 days and 10 days. The inner packaging material of the packaged sample was a medical low-density polyethylene bag, and the outer packaging material is a medical polyester/aluminum/polyethylene composite bag. The samples after the storage were characterized by properties, purity (HPLC), crystal form (XRD) and water content to detect the changes in the crystal form and purity. The results are shown in Tables 8-12 (“^#” indicates the ICH condition).

[2] = Study on stability of the crystal form I under influencing factors (Experimental Example 2)
Protocol: In order to evaluate the solid stability of the crystal form I of the present application, the stability of the crystal form I under influencing factors (high temperature, high humidity and light) was investigated. The crystal form I was stored under the high temperature condition (40° C., open (weighing bottle)), the high temperature condition (60° C., open (weighing bottle)), the high humidity condition (room temperature, 75% RH, open (weighing bottle)) and the high humidity condition (room temperature, 92.5% RH, open (weighing bottle) and packaged) for 5 days, 10 days and 30 days, and under the ICH light condition (5500 Lux, 0.9 w/m^2, open (weighing bottle) and packaged) for 5 days and 10 days. The inner packaging material of the packaged sample was a double-layer low-density polyethylene bag, and the outer packaging material is a polyester/aluminum/polyethylene composite bag for medicine packaging. The samples after the storage were determined for properties, related substances (HPLC), crystal form (XRD), water content and content to investigate the influence of high temperature, high humidity and light conditions on the product. The results are shown in Table 13 (“^#” indicates the ICH condition).

[3] = Study on accelerated stability and long-term stability of the crystal form I
Protocol: The crystal form I was placed under the accelerated condition (40±2° C., 75%±5% RH, and packaged) for 1, 2, 3 and 6 months, and under the long-term condition (25±2° C., 65%±5% RH, and packaged) for 3, 6, 9, 12, 18, 24 and 36 months to investigate its acceleration and long-term stability. The inner packaging material of the packaged sample was a double-layer low-density polyethylene bag, and the outer packaging material is a polyester/aluminum/polyethylene composite bag for medicine packaging. The samples after the storage were determined for properties, related substances (HPLC), crystal form (XRD), water content and content to investigate the stability of the product.

[4] = as above; settings: long-term, 25° C. ± 2° C., 60% ± 5% RH, packaged
[5] = 92.5% RH, room temperature, open, 5 days
[6] = 92.5% RH, room temperature, open, 10 days
[7] = 92.5% RH, room temperature, open, 30 days
[8] = Light (ICH, 5500 Lux), closed, 10 days
[9] = 75% RH, room temperature, open, 5 days
[10] = 75% RH, room temperature, open, 10 days
[11] = 75% RH, room temperature, open, 30 days
[12] = Light (ICH, 5500 Lux), open, 5 days
[13] = Light (ICH, 5500 Lux), open, 10 days
[14] = accelerated, 40° C. ± 2° C., 75% ± 5% RH, packaged, 1 month
[15] = accelerated, 40° C. ± 2° C., 75% ± 5% RH, packaged, 2 months
[16] = accelerated, 40° C. ± 2° C., 75% ± 5% RH, packaged, 3 months
[17] = accelerated, 40° C. ± 2° C., 75% ± 5% RH, packaged, 6 months
[18] = long-term, 25° C. ± 2° C., 60% ± 5% RH, packaged, 6 months

Cn1cc(-c2nc(N=S(C)(C)=O)ccc2Oc2ccc(F)cc2F)c2cc[nH]c2c1=O [crystal form I]
Impurity content ([1]; 60° C., open, 5 days): 1.23% | Crystal form change ([1]; 60° C., open, 10 days): Unchanged | Impurity content ([1]; 60° C., open, 10 days): 1.21% | Water content ([1]; 60° C., open, 10 days): 0.19% | Crystal form change ([1]; 60° C., open, 30 days): Unchanged | Impurity content ([1]; 60° C., open, 30 days): 1.31% | Water content ([1]; 60° C., open, 30 days): 0.15% | Crystal form change ([1]; 92.5% RH, packaged, 30 days): Unchanged | Impurity content ([1]; 92.5% RH, packaged, 30 days): 1.32% | Water content ([1]; 92.5% RH, packaged, 30 days): 0.23% | Impurity content [1, 5]: 1.23% | Crystal form change [1, 6]: Unchanged | Impurity content [1, 6]: 1.23% | Water content [1, 6]: 0.36% | Crystal form change [1, 7]: Unchanged | Impurity content [1, 7]: 1.30% | Water content [1, 7]: 0.31% | Crystal form change ([1]; Light (ICH), packaged, 10 days): Unchanged | Impurity content ([1]; Light (ICH), packaged, 10 days): 1.21% | Water content ([1]; Light (ICH), packaged, 10 days): 0.30% | Impurity content ([1]; Light (ICH, 5500 Lux), closed, 5 days): 1.18% | Crystal form change [1, 8]: Unchanged | Impurity content [1, 8]: 1.21% | Water content [1, 8]: 0.34% | Impurity content ([1]; starting crystal form): 1.20% | Water content ([1]; starting crystal form): 0.39% | Crystal form change ([2]; 40° C., open, 5 days): Unchanged | Impurity content ([2]; 40° C., open, 5 days): 0.06% | Water content ([2]; 40° C., open, 5 days): 0.02% | Crystal form change ([2]; 40° C., open, 10 days): Unchanged | Impurity content ([2]; 40° C., open, 10 days): 0.08% | Water content ([2]; 40° C., open, 10 days): 0.01% | Crystal form change ([2]; 40° C., open, 30 days): Unchanged | Impurity content ([2]; 40° C., open, 30 days): 0.08% | Water content ([2]; 40° C., open, 30 days): 0.02% | Crystal form change ([2]; 60° C., open, 5 days): Unchanged | Impurity content ([2]; 60° C., open, 5 days): 0.07% | Water content ([2]; 60° C., open, 5 days): 0.01% | Crystal form change ([2]; 60° C., open, 10 days): Unchanged | Impurity content ([2]; 60° C., open, 10 days): 0.08% | Water content ([2]; 60° C., open, 10 days): 0.01% | Crystal form change ([2]; 60° C., open, 30 days): Unchanged | Impurity content ([2]; 60° C., open, 30 days): 0.09% | Water content ([2]; 60° C., open, 30 days): 0.02% | Crystal form change [2, 9]: Unchanged | Impurity content [2, 9]: 0.06% | Water content [2, 9]: 0.02% | Crystal form change [2, 10]: Unchanged | Impurity content [2, 10]: 0.08% | Water content [2, 10]: 0.03% | Crystal form change [2, 11]: Unchanged | Impurity content [2, 11]: 0.08% | Water content [2, 11]: 0.04% | Crystal form change ([2]; 92.5% RH, packaged, 5 days): Unchanged | Impurity content ([2]; 92.5% RH, packaged, 5 days): 0.06% | Water content ([2]; 92.5% RH, packaged, 5 days): 0.02% | Crystal form change ([2]; 92.5% RH, packaged, 10 days): Unchanged | Impurity content ([2]; 92.5% RH, packaged, 10 days): 0.08% | Water content ([2]; 92.5% RH, packaged, 10 days): 0.01% | Crystal form change ([2]; 92.5% RH, packaged, 30 days): Unchanged | Impurity content ([2]; 92.5% RH, packaged, 30 days): 0.08% | Water content ([2]; 92.5% RH, packaged, 30 days): 0.03% | Crystal form change [2, 5]: Unchanged | Impurity content [2, 5]: 0.06% | Water content [2, 5]: 0.03% | Crystal form change [2, 6]: Unchanged | Impurity content [2, 6]: 0.08% | Water content [2, 6]: 0.03% | Crystal form change [2, 7]: Unchanged | Impurity content [2, 7]: 0.08% | Water content [2, 7]: 0.06% | Crystal form change ([2]; Light (ICH), packaged, 5 days): Unchanged | Impurity content ([2]; Light (ICH), packaged, 5 days): 0.06% | Water content ([2]; Light (ICH), packaged, 5 days): 0.02% | Crystal form change ([2]; Light (ICH), packaged, 10 days): Unchanged | Impurity content ([2]; Light (ICH), packaged, 10 days): 0.08% | Water content ([2]; Light (ICH), packaged, 10 days): 0.02% | Crystal form change [2, 12]: Unchanged | Impurity content [2, 12]: 0.06% | Water content [2, 12]: 0.01% | Crystal form change [2, 13]: Unchanged | Impurity content [2, 13]: 0.08% | Water content [2, 13]: 0.02% | Impurity content ([2]; starting crystal form I): 0.05% | Water content ([2]; starting crystal form I): 0.02% | Crystal form change [3, 14]: Unchanged | Impurity content [3, 14]: 0.08% | Water content [3, 14]: 0.03% | Crystal form change [3, 15]: Unchanged | Impurity content [3, 15]: 0.08% | Water content [3, 15]: 0.03% | Crystal form change [3, 16]: Unchanged | Impurity content [3, 16]: 0.08% | Water content [3, 16]: 0.03% | Crystal form change [3, 17]: Unchanged | Impurity content [3, 17]: 0.08% | Water content [3, 17]: 0.03% | Stability (conclusion) ([3]; influencing factors, accelerated and long-term conditions): good stability | Crystal form change ([3]; long-term, 25° C. ± 2° C., 60% ± 5% RH, packaged, 3 months): Unchanged | Crystal form change [3, 18]: Unchanged | Impurity content [3, 18]: 0.08% | Impurity content ([3]; starting crystal form I): 0.05% | Water content ([3]; starting crystal form I): 0.02% | Impurity content ([4]; 3 months): 0.08% | Water content ([4]; 3 months): 0.03% | Water content ([4]; 6 months): 0.04%
